Source: a melting point compilation (Tetko et al.; mined from patent text by program, amines drawn as free bases though some values may be those of a salt)

SMILES	melting point [°C]
NS(=O)(=O)c1ccc(-c2noc(-c3cnn4c(C(F)(F)F)cc(-c5ccc(C(F)(F)F)cc5)nc34)n2)s1	276
COc1ccc(-n2cc(C(=O)O)c(=O)c3cc(F)c(F)cc32)cc1	256 to 258
CCOC(=O)c1cccc(NC(=O)CN2C(=O)c3ccccc3C2=O)c1	215
CCOC(=O)C1=C(C)NC(COC)=C(C(=O)OCC)C1c1ccc(S(C)(=O)=O)cc1 (stereo unspecified)	156 to 158
CCCC(C)c1nn(-c2ccc(C(F)(F)F)cn2)cc1CCCOc1c(CC(=O)O)cccc1OC (stereo unspecified)	107 to 108
Oc1ccc2nc(-c3ccc(O)c(O)c3)oc2c1	282 to 284
CCCCOc1cc(Cl)c(OCCCC)cc1N	43 to 44
O=C(CCc1ccccc1)N[C@H](Cc1ccc(C(F)(F)F)cc1)[C@@H](O)c1ccoc1 (racemic)	134 to 135
O=C(O)c1ccccc1Sc1ccc(Cl)cc1	240
O=C(O)c1cc(C(c2ccccc2)c2ccccc2)ccn1	172 to 177
CN(C)C1CCN(c2cccc(-c3cnc4[nH]cc(C(=O)C(C)(C)C)c4n3)c2)C1 (stereo unspecified)	204 to 206
CCn1c(N(C)C)nc2cc(C(F)(F)F)c(Cl)c(N)c21	99 to 100
COc1ccc(CBr)cc1S(=O)(=O)NC(C)(C)C	137 to 142
CC(=O)N1CCN(C)C1C(c1ccccc1)c1ccccc1 (stereo unspecified)	164 to 165
CCc1c(Oc2ccc(C(F)(F)F)cc2[N+](=O)[O-])nn(C(=O)NC)c1C	81 to 82
O=c1[nH]c2ccc(Cl)cc2c2c1[nH]c1ccccc12	325 to 327
COc1c(Cl)cc(Cn2c(S)nc3ccccc32)cc1Cl	217 to 218
CCCCCCC(C(=O)O)c1cccc(Oc2ccccc2C)c1O (stereo unspecified)	65 to 66
COC(=O)COc1ccc(OC2CCN(c3ccncc3)CC2)cc1	74 to 76
CC(C)=CCSC1=C(O)CC(C)(C)CC1=O	50.5 to 52
CCCCCCCCCCCC(CC1OC(=O)C1CCCCCC)OC(=O)C(N)CC(C)C (stereo unspecified)	27 to 30
Fc1ccccc1OCc1ccc2ccccc2n1	84 to 86
CC(=O)c1cnccc1-c1c(-c2ccccc2)nn2ccccc12	159 to 161
COc1cc(Cl)nc(Oc2cccc(Oc3nc(OC)cc(OC)n3)c2C(=O)O)n1	150 to 152
Cc1nc2c(N)nc3cc(-c4ccccc4)ccc3c2n1CCCS(C)(=O)=O	203 to 205
CN1CCN(C2=Nc3ccccc3Nc3cscc32)CC1	200 to 201

SMILES	melting point [°C]
Cc1nc(-c2ccc(SC(C)C)c([N+](=O)[O-])c2)sc1C(=O)O	233 to 235
C=Cc1c(C(=O)O)nc(Cl)c(F)c1N	164 to 166
CN1CCN(c2cccc3ccc(-c4cccc(F)c4)cc23)CC1	116
CCSc1nc(-c2ccccc2)cc2nnc(C)n12	210 to 212
COc1ccc(C=Nc2cc(OC)c(OC)c(OC)c2)cc1O[Si](C)(C)C(C)(C)C	90 to 91
CC(C)N(Cc1ccc(Cl)c(Cl)c1)S(=O)(=O)c1cc2ccccc2s1	133 to 135
CCNC(=O)CCCC=CCC1C(O)CC(O)C1C=CC(O)CCc1ccccc1 (stereo unspecified)	64 to 66
CCOC(=O)C(=Cc1cccc(OC)c1)C(=O)OCC	45
CC12CC=C3c4ccc(O)cc4CCC3C1CCC2=O (stereo unspecified)	250 to 255
O=Cc1ccc(C(=O)O)c(SCc2ccccc2)c1	182 to 190
CC(=O)c1c(O)cccc1OCC(O)COc1ccc(Cl)cc1Cl (stereo unspecified)	130 to 132
CCOC(=O)N1CCc2cc(OC)c(OC)cc2CC1	91 to 93
Cc1cc(N)c(C)nc1OC(F)F	38.4 to 39.4
CCN1CCCC(NC(=O)c2ccc(Nc3ccnc4c(C(F)(F)F)cccc34)cc2)C1 (stereo unspecified)	177 to 178
CCc1ccc(/C(Cl)=C/c2ccc(Br)cc2)cc1	75
COCCOc1ccc(C#CC2(O)CN3CCC2CC3)c(CO)c1 (stereo unspecified)	98.5 to 100
Cc1cc(C)nc([NH+]([O-])C(=O)Cc2cccs2)c1 (stereo unspecified)	154 to 155
Cc1nc(C(C)C)c(Sc2cc(Cl)cc(Cl)c2)n1C	95 to 96
COc1ccc(C(=O)c2coc(C(=O)O)cc2=O)cc1	185 to 190
NC1=CCC(c2nc3c(-c4cnn(-c5ccc(F)cc5)c4)cccn3n2)(C2CCNCC2)C=C1 (stereo unspecified)	245 to 247
CC1(O)CCC2(C)C(CCC3C2CCC2(C)C(c4cc(CO)no4)CCC32)C1 (stereo unspecified)	192 to 193
CCCC1=C(C(=O)OC)C(c2ccccc2Cl)c2c[nH]nc2N1 (stereo unspecified)	203 to 207
CCOC[C@H]1CN(c2ccc(OCc3ccccc3)cc2)C(=O)O1	92
COc1ccc(S(=O)(=O)Nc2ccccc2NC=O)cc1	143 to 144
COc1cc(Cl)c(NN)c(Cl)c1	124 to 125
Cc1ccc(S(=O)(=O)NCCCCOc2ccc([N+](=O)[O-])cc2)cc1	87 to 88

SMILES	melting point [°C]
OCCCN1CCN(c2ccccc2OCC(F)(F)F)CC1	94 to 96
CC(C)(C)OC(=O)Nc1ccnc(NC(=O)NCc2ccccn2)c1	192 to 193
CC(=O)OCC1OC(OCCBr)C(OC(C)=O)C(OC(C)=O)C1OC(C)=O (stereo unspecified)	116 to 117
N#CC1CN1C(=O)NS(=O)(=O)c1ccccc1 (stereo unspecified)	103 to 108
NC(=O)N(O)Cc1ccc(OCCc2csc(-c3ccccc3)n2)cc1	137 to 138
Cc1c(C)c2c(c(C)c1NC(=O)CC(C)(C)C)C(C)(c1ccc(C(C)C)cc1)CO2 (stereo unspecified)	194 to 195
O=C(O)CON=c1c2nccc3c(Cl)ccc(c32)n2cccc12	202
Cc1nc2c(OCCNCc3ccccc3)cccc2[nH]1	> 250
Cc1noc(C2C(=O)Nc3cc(Cl)ccc3C2=O)n1 (stereo unspecified)	> 320
CC(=O)N1CCC(c2n[nH]c3cc(Cl)ccc23)CC1	172 to 174
C/C(=C\c1ccc(C(=O)O)cc1)c1ccc2c(c1)CC(C)(C)CC(C)(C)C2	232 to 235
CC(C)(C)OC(=O)N[C@H]1C(=O)N[C@H]1CO (relative stereo)	128 to 131
CCOc1nn(-c2ccc(C(F)(F)F)cn2)cc1CCCOc1ccc(CCC(=O)O)c(OC)c1	120 to 121
CS(=O)(=O)c1nnc(-c2ccc3occ(-c4ccc(OC(F)(F)F)cc4)c3c2)o1	196 to 197
COc1cccc2c1c(C)c(CCC(=O)O)n2Cc1ccc(Cl)cc1	145
CC(c1ccc(Cl)cc1)N(O)C(N)=O (stereo unspecified)	125 to 128
CCS(=O)(=O)N(c1cc(-c2ncnc(C(F)(F)F)c2Cl)c(F)cc1C#N)S(=O)(=O)CC	191 to 194
COC(=O)CCCCC(=O)Nc1ccc2c3c(n(CCCNC(=O)OC(C)(C)C)c(=O)c2c1)-c1ccccc1C3=O	143 to 145
CCCCCCN(CC(=O)O)CC(=O)O	130 to 131
CC(Sc1nc(N)c(Br)c(Cl)n1)c1cc2ccccc2cn1 (stereo unspecified)	173 to 174
CCC1=C(C(=O)OC)C(c2ccc(C)cc2)C(C#N)=C(CC(C)(C)C)N1 (stereo unspecified)	126
CN(C)c1ccc(/C=C/c2c(F)cccc2F)c([N+](=O)[O-])c1	152 to 153
CC(=O)OCCc1cccc2c(-c3ccccc3)c([N+](=O)[O-])oc12	95 to 98
CON(C)C(=O)[C@H]1CCn2c(cc3ccccc32)C1	78 to 80
CCC1(CCOS(C)(=O)=O)C(=O)N2CC=CC(C(=O)OC)N2C1=O (stereo unspecified)	94 to 96
CC(CO)(CO)NS(=O)(=O)c1cc(NC(=O)c2cnn3c(C(F)F)cc(-c4ccc(C(F)(F)F)cc4)nc23)c(Cl)s1	237

SMILES	melting point [°C]
CC(C)NC(=S)Nc1cccc(-c2ccnc3c(C(=O)c4cccs4)cnn23)c1	208 to 210
O=C(O)CCCCCc1nn(-c2ccc([N+](=O)[O-])cc2)c2c1CCCC2	119 to 121
COC(=O)n1nc(Oc2c(F)cc(C(F)(F)F)cc2Cl)cc1C	123 to 125
COCNc1c(C#N)cnn1-c1ccc(Cl)c(Cl)c1Cl	129 to 130
COc1ccc(Br)c(C(=O)N2CCN(S(=O)(=O)c3c(F)cccc3F)CC2)c1	154
CCC1=C(c2ccc(F)c(F)c2)C(=NO)CC1	136 to 137
CCCCNC(=O)c1ccc(C(F)(F)F)c(-n2nc(CC)n(Cc3ccc(-c4ccccc4S(=O)(=O)NC(=O)OC(C)(C)C)cc3F)c2=O)c1	114 to 116
CC1(C)Oc2ccc(C#N)cc2C(n2ccc(O)cc2=O)C1O (stereo unspecified)	248 to 250
Cc1cccc([C@@H]2C[C@H]3C=C(c4c[nH]c(-c5ccc(F)cc5)c4-c4ccncc4)CCN3C2)c1	204 to 206
Nc1cc2c(cc1[N+](=O)[O-])OCC2	152
O=C(O)c1cccc(-c2cccc(Oc3ccc(Cl)cc3Cl)n2)c1	244 to 245
CC(O)Cc1cccc(Nc2nccc(-c3sc(N)nc3-c3ccccc3)n2)c1 (stereo unspecified)	219 to 220
Cc1[nH]cc2c(=O)n(-c3ccc(Cl)cc3)nc-2c1-c1cccc(-n2cnnc2)c1	> 350
CC(=NOCCOc1ccc(CC2SC(=O)NC2=O)cc1)c1ccc(O)nc1 (stereo unspecified)	240 to 242
C[C@H](Cc1ccc2c(c1)OC(C(=O)O)(C(=O)OCCc1ccccc1)O2)NC[C@H](O)c1cccc(Cl)c1 (stereo partly specified)	75 to 82
CO/C=C(/C(=O)OC)c1c(O)c(C)nn1C	173
O=C(O)C1=CC2=CCCC=C2Sc2c1ccc1c2CCC1	77
CCCCc1ccc(-c2ccc(CCc3ccc(C(F)(F)F)cc3)cc2)cc1	85
O=S(=O)(c1ccccc1)N1CCC(C(O)(c2ccc(F)c(F)c2)c2ccc(F)c(F)c2)CC1	152 to 154
NC(=O)COC(=O)c1ccccc1Cl	117 to 120
CSc1nc2ccnn2c(NCc2ccccc2)c1C#N	165
COc1ccc(CNC(=O)c2ccccc2)cc1	98 to 99
C[C@H]1CN(c2ccccn2)[C@@H](C)CN1C1=c2ccccc2=NCN1c1ccccc1 (relative stereo)	68 to 70
